Results on 3 compounds are retold here after ChEMBL document CHEMBL1201862, “PubChem BioAssay data set” (2004).

The source made the active and inactive calls.

Assay [1] addresses Serine/threonine-protein phosphatase (Homo sapiens, UniProt Q9BPW0). Description: Counterscreen for inhibitors of PP1: fluorescence-based biochemical high throughput dose response assay to identify inhibitors of Protein Phosphatase 5 (PP5). [Related pubchem assays: 2034 (Summary (PP5 inhibitors)), 1987 (PP5 inhibitors in singlate), 2235 (PP1 inhibitors in singlate)]. For orientation: A counterscreen serves to expose hits that act by an unwanted route or on another target.

Assay [2] addresses Serine/threonine-protein phosphatase PP1-alpha catalytic subunit (Homo sapiens, UniProt P62136). Description: PP1 phosphatase inhibitors, dose response, biochemical, fluorescence (AID 2403).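 Further: phosphatase turnover of OMFP into fluorescent 3-O-methylfluorescein.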
Assay [3] can be described thus: cytotoxicity toward NIH3T3 fibroblasts, dose response, counter-screen, cell-based, ATP luminescence, mouse fibroblasts (AID 2010).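 Further: cells exposed to compound for about 90 hours before reading.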 Format: functional.
Assay [4] can be described thus: inhibitors of intracellular T. cruzi replication, confirmation, NIH3T3 host cells, beta-gal luminescence (AID 2044).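 Further: intracellular parasites grown in NIH/3T3 mouse fibroblasts as host cells; luminescent beta-galactosidase reporter signal from transgenic T. cruzi replicating inside host cells; inhibitors lower the luminescence signal.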 Format: functional, cell-based.
Assay [5] has as its target T1, RNA-binding protein pos-1 (Caenorhabditis elegans, UniProt G5EF15).
T1 sequence (G5EF15 whole entry): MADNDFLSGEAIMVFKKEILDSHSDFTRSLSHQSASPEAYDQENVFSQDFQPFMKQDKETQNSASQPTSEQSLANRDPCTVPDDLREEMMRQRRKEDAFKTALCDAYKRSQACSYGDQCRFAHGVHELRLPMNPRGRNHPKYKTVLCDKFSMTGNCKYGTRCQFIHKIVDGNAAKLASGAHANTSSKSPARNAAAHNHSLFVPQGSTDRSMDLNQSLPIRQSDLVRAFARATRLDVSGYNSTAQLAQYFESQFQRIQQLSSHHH
Description: inhibitors of POS-1/mex-3 RNA binding, dose response, biochemical, fluorescence polarization (AID 1964).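 Further: purified POS-1 fused to maltose binding protein made in E. coli; potency of compounds blocking POS-1 binding to fluorescent RNA.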

Assay [6] can be described thus: Counterscreen for IDE inhibitors: Luminescence-based cell-based high throughput dose response assay to identify compounds that are cytotoxic to HEK cells. [Related pubchem assays: 434962 (Primary screen (IDE inhibitors in singlicate)), 449730 (Counterscreen (Cytotoxicity in triplicate)), 435028 (Confirmation (IDE inhibitors in triplicate)) …. Format: functional. The conditions noted are these: HEK293.

Assay [7] deals with T2, Nuclear receptor subfamily 0 group B member 1 (Homo sapiens, UniProt P51843).
T2 sequence (P51843 whole entry): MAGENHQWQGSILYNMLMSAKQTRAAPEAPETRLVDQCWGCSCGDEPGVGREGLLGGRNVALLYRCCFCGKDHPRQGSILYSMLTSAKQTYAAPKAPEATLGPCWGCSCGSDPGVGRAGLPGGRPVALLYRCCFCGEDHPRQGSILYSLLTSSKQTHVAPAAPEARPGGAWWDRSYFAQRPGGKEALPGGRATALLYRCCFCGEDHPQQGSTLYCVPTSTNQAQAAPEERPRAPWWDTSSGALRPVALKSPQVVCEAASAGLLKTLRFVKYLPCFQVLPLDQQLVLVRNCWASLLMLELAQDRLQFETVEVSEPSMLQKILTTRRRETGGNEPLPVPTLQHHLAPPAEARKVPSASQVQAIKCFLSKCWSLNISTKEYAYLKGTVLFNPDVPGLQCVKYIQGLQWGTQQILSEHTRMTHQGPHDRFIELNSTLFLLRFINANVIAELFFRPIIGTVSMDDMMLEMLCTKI
Description: Luminescence-based cell-based high throughput dose response assay for inhibitors of the orphan nuclear receptor subfamily 0, group B, member 1 (DAX1; NR0B1). [Related pubchem assays (depositor defined):AID504766, AID504790]. Type of assay: functional.

The target of assay [8] is T3, Insulin-degrading enzyme (Homo sapiens, UniProt P14735).
T3 sequence (P14735 whole entry): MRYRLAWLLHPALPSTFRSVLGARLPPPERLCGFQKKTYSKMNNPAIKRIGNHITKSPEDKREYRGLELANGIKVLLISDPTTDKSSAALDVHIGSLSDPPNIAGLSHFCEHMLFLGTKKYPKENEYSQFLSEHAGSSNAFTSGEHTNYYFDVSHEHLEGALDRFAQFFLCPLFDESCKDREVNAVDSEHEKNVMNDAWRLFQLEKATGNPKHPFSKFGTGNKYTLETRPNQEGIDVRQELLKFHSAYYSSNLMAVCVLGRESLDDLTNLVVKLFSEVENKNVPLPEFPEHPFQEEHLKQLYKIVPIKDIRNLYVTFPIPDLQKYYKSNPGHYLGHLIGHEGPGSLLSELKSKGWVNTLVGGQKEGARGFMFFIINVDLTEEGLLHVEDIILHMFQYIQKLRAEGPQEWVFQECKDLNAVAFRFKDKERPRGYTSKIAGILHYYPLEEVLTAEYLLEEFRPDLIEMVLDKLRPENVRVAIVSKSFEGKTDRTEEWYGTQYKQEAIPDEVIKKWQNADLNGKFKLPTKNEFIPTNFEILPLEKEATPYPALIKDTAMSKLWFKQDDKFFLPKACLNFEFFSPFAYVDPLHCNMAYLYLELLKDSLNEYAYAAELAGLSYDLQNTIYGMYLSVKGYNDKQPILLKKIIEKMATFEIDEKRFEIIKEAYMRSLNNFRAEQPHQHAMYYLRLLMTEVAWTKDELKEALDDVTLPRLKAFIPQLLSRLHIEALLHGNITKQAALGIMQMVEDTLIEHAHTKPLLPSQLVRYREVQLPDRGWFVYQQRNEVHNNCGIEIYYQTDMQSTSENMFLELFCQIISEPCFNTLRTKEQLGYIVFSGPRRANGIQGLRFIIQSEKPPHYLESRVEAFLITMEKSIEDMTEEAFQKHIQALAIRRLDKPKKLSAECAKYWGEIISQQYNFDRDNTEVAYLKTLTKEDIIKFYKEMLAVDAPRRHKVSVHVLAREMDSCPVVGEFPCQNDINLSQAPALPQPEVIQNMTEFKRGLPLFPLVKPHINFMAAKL
Description: Dose Response: Fluorescence polarization-based cell-based high throughput dose response assay for inhibitors of insulin-degrading enzyme (IDE). [Related pubchem assays: 434962 (Primary screen (IDE inhibitors in singlicate)), 449730 (Counterscreen (Cytotoxicity in triplicate)), 435028 (Confirmation (IDE inhibitors in triplicate)), 434984 (Summary …. Format: functional.

A short description of assay [9]: enhancers of respiration in Yfh1-depleted yeast, dose response, Friedreich's ataxia, plus single-dose screen (AID 1465).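 Further: yeast depleted of Yfh1p frataxin homolog grown on glycerol needing respiration; WST-1 tetrazolium dye reduction as measure of cellular dehydrogenase metabolic activity.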 Format: functional.
Assay [10] relates to HEK293. Description: cells. Type of assay: functional, cell-based. The conditions noted are these: Homo sapiens.
Assay [11] deals with T4, Neuropeptide Y receptor type 1 (Homo sapiens, UniProt P25929).
T4 sequence (P25929 whole entry): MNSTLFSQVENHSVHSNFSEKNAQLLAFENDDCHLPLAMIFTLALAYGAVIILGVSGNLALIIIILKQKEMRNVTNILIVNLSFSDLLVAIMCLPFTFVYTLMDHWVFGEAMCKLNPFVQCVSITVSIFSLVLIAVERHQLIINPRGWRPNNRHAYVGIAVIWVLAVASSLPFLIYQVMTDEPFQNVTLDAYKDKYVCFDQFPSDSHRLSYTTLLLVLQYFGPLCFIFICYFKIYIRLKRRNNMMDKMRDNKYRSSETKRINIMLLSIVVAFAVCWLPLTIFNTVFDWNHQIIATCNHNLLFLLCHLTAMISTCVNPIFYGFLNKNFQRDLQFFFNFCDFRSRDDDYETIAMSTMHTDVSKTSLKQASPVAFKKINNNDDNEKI
Description: Fluorescence-based counterscreen for agonists of NPY-Y2: cell-based high-throughput dose response assay for agonists of NPY-Y1. Type of assay: functional.

The target of assay [12] is T5, Neuropeptide Y receptor type 2 (Homo sapiens, UniProt P49146).
T5 sequence (P49146 whole entry): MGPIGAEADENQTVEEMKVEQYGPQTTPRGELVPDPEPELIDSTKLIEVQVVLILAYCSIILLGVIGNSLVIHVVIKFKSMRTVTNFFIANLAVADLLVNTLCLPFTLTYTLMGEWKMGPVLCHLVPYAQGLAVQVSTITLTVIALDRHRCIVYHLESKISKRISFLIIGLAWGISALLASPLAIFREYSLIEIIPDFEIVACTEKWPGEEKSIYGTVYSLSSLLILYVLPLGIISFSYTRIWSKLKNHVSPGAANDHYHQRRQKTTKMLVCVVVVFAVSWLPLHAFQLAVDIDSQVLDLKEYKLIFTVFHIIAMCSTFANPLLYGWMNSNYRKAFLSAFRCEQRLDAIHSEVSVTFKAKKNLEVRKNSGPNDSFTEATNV
Description: Fluorescence-based cell-based high-throughput dose response assay for agonists of NPY-Y2. [Related pubchem assays: 1703 (Screening assay (CNGC inhibitors).), 1359 (Screening assay (NPY-Y2 potentiators or agonists).), 1304 (Screening assay (NPY-Y1 potentiators or agonists).), 1710 (Screening assay (NPY-Y2 agonists).), 1791 (Summary AID.)]. Type of assay: functional.

Assay [13] concerns HEK293. Description: Fluorescence-based counterscreen for potentiators or agonists of NPY-Y2: cell-based high-throughput dose response assay to identify inhibitors of cyclic nucleotide gated ion channel (CNGC) activity. In this assay, the parental HEK293 cell line transfected with a cyclic-nucleotide gated ion channel (CNGC)-based cAMP sensor is used to measure inhibition of isoproterenol-induced CNGC activity by test compound. The note with it: Homo sapiens. Type of assay: functional.

Serine/threonine-protein phosphatase PP1-alpha catalytic subunit, sequence (P62136 whole entry): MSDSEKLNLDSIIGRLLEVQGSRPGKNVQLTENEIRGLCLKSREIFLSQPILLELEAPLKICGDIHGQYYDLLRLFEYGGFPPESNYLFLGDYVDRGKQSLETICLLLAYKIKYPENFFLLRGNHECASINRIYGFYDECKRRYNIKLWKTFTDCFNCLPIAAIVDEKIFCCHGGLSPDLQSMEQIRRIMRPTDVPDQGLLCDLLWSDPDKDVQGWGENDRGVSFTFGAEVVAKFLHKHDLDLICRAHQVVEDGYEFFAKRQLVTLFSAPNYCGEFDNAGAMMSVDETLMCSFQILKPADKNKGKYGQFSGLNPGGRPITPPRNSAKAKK
Serine/threonine-protein phosphatase, sequence (Q9BPW0 whole entry): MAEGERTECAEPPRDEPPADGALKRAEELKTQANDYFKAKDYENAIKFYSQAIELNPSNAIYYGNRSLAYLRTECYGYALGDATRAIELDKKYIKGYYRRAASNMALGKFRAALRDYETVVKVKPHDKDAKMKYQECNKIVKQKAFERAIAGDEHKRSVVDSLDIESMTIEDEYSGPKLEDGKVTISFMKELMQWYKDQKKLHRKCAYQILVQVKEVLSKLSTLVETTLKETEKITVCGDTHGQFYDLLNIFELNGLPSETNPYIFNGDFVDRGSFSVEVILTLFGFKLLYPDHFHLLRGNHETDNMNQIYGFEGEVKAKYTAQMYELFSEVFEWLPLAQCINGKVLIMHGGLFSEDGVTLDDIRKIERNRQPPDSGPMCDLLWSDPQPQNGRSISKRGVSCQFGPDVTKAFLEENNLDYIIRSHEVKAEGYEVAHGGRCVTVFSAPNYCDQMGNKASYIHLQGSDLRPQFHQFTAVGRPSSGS

One may read the IC50 as the midpoint of a concentration-inhibition curve. A word on the EC50: it is the midpoint of the concentration-response curve. `COc1cnc(-c2ccccn2)nc1Sc1ccccc1`: the values for the IC50 in assay [1] and in assay [2] were > 67 µM (not active) and 7.03 µM (active), respectively. The EC50 is > 60 µM (not active) in [3] and 2.47 µM (active) in assay [4].
Regarding `CCN(CC)c1ccc(/C=C2\C(=O)NC(=S)N(C)C2=O)o1`, the EC50 was > 300 µM (inconclusive) in assay [5] and > 100 µM (active) in assay [9]. Besides, the IC50 was > 55.7 µM (not active) in assay [6], > 67.6 µM (inactive) in assay [7], 14 µM (not active) in assay [8] and > 67.6 µM (inactive) in assay [10].
As for `COC(=O)/C(=C/c1cn(C(C)=O)c2ccccc12)[N+](=O)[O-]`, the EC50 is given as > 35.4 µM (not active) in [11], > 35.4 µM (not active) in [12] and 12.3 µM (not active) in assay [13].
